What was measured:
Assay type in all cases: biochemical
human FAP = molecular target: T1, human FAP (Homo sapiens, UniProt Q12884); test: In vitro fluorescence enzymatic inhibition assay, FAP; conditions: for IC50: recombinant FAP, fluorogenic DPP substrate 1, n = 3
T1 construct: purchased BPS Bioscience 80100
T1 sequence (Q12884 1-760): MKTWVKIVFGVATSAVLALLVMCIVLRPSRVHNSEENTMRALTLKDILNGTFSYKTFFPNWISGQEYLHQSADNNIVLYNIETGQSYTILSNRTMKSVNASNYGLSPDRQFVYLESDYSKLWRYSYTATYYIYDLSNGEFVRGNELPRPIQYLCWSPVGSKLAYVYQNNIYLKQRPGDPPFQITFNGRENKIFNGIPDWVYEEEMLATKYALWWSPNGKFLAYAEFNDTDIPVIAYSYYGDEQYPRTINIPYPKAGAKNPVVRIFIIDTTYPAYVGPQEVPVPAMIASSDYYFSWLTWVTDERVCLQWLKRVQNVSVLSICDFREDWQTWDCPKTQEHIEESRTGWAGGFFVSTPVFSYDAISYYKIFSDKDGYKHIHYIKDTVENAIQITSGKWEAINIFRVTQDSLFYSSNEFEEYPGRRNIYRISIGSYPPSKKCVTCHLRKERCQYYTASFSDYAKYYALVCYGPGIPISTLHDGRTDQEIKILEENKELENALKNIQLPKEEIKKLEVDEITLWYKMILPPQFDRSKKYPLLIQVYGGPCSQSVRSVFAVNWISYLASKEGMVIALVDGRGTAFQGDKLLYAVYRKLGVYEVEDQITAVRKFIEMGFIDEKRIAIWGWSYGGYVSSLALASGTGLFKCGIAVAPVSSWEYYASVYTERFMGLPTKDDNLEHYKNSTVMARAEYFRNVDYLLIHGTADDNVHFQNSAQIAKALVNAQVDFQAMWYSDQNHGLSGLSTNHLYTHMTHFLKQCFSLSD
Description: (§1) Enzymatic inhibition activity and selectivity of OncoFAP derivatives was assessed by employing commercially available in vitro fluorescence assays for FAP, dipeptidyl peptidase 8 (DDP8), and prolyl oligo peptidase (POP) (BPS Bioscience, San Diego, CA, US). The fluorogenic substrate (Fluorogenic DPP substrate 1, Ala-Pro-AMC dipeptide, AMC: 7-amino-4-methylcumaryl) was incubated together with recombinant FAP, DDP, or POP/PREP in the presence or absence of test compounds. The enzymatic activity was correlated with the amount of cleaved fluorescent product measured by fluorescence spectroscopy. IC50 of each test compound was determined from the curves obtained by plotting fluorescence intensities at different concentrations of the inhibitor.
(§2) The synthetic fluorometric DPP substrate 1 (BPS Bioscience, San Diego, CA, USA) Catalog no. […] Reaction rates were measured from the initial 30 min of the reaction profile where product release was linear with time and plotted as a function of inhibitor dose.

[1] = molecular target: T2, dipeptidyl peptidase 8 (DPP8) (Homo sapiens, UniProt Q6V1X1); test: In vitro fluorescence enzymatic inhibition assay, DPP8; conditions: for IC50: recombinant DPP8, fluorogenic substrate
T2 construct: purchased BPS Bioscience 80080
Description: as §1, §2

[2] = molecular target: T3, prolyl oligo peptidase (POP) (Homo sapiens, UniProt P48147); test: In vitro fluorescence enzymatic inhibition assay, POP; conditions: for selectivity for FAP compared to POP: from IC50 values; for IC50: recombinant POP/PREP
T3 construct: purchased BPS Bioscience 80105
T3 sequence (P48147 1-710): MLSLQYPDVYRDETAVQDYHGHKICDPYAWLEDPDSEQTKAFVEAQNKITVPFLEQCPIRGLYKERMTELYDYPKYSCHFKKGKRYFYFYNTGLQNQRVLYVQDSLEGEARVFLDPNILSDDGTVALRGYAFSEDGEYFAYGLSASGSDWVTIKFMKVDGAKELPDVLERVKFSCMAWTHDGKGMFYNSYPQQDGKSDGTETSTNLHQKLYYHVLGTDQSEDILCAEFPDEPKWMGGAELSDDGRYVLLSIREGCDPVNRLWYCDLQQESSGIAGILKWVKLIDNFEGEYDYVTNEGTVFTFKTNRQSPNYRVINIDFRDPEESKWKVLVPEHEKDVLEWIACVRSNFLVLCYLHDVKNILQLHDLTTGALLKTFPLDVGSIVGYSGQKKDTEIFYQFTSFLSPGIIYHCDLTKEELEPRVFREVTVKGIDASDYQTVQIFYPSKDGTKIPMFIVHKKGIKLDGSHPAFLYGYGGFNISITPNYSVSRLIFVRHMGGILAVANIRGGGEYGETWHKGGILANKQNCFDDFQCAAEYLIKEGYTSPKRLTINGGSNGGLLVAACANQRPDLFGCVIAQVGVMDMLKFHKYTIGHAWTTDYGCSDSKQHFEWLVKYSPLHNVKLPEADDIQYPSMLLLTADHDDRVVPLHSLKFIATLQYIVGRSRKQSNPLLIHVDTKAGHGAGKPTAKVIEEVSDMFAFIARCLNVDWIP
Description: as §1, §2

T2 sequence (Q6V1X1 whole entry): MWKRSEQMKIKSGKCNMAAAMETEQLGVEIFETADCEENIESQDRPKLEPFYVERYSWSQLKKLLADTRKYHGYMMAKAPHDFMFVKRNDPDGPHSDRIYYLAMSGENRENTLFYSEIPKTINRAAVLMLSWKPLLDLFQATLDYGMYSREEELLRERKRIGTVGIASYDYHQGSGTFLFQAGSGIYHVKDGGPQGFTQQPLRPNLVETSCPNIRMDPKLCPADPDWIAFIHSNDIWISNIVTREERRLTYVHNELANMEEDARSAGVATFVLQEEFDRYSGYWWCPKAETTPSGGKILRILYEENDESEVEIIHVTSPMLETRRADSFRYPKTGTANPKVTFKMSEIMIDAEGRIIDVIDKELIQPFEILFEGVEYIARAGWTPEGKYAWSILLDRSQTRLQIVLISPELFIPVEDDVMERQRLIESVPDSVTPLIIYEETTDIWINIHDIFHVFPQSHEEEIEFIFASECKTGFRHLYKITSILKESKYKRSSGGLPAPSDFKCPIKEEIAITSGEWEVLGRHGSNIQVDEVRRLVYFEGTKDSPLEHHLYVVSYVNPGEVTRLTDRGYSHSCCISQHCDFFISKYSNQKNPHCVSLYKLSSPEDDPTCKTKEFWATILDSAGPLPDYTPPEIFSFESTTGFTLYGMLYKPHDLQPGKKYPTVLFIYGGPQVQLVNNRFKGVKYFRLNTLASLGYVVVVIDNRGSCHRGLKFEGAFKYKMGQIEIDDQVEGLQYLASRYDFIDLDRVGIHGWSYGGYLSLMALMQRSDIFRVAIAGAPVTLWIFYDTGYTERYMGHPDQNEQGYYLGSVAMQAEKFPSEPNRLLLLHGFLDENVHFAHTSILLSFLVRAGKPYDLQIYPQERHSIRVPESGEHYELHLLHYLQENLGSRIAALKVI

superior FAP binding potency compared to ^natGa-FAPI-46 (human FAP; from IC50 values)	IC50 (human FAP)	IC50 [1]	selectivity for FAP compared to POP [2]	IC50 ([2]; fluorogenic substrate)	selectivity for FAP compared to DPP8 ([1]; from IC50 values)	IC50 [2]	Substance
ca. 16 fold	0.00051 ± 0.00011 µM	6.87 ± 0.111 µM	96 fold	0.0492 ± 0.0063 µM			[^natGa]Ga-OncoFAP-DOTAGA [^natGa-OncoFAP]
	0.00837 ± 0.00071 µM	10.2 ± 3 µM	> 1000 fold		> 1000 fold	> 10 µM	[^natGa]Ga-FAPI-46 [^natGa-FAPI-46]
